Measured values from US20070254312A1, “Protein Kinase Inhibitors and Methods for Identiying Same” (priority 2004, published 2007).
Starred links: 1 amine or outer side, 2 acyl side, 3 side chain; linkers in the order of their positions; H or OH if unused. Non-standard residues stand in square brackets, D forms with d. Residues, ends and D or L forms follow the SMILES beside them. *: point of attachment. Benzoyl(4-(pyrrol-1-yl)) = O=C(c1ccc(-n2cccc2)cc1)*; Phenylacetyl(3,4-Cl2) = O=C(Cc1ccc(Cl)c(Cl)c1)*; Cysteamide = C(CS[*:3])N[*:1]; Dap = NC[C@H](N)C(=O)O

Tests used:
PKCθ = PKCθ (Homo sapiens, UniProt Q04759); parameters: purchased Panvera; settings: literature values; relative to most potently inhibited isoform (=1); cited from earlier work
PKCγ = PKCγ (Homo sapiens, UniProt P05129); assay: PKC isoform assay, Example 1; assay type: biochemical; parameters: purchased Pan Vera
Protocol: Protein Kinase C Assay (general). The peptides […] (for PKC α, β and γ) and acetyl-[…] (for PKC ε and ζ) were used as substrates. […] Total reaction volume was 50 μL. […] Following an additional 5 min incubation at ambient temperature, 75 μL from each reaction well was transferred into each well of a Unifilter (P81 cellulose phosphate paper) assay plate and washed four times with 0.1% phosphoric acid in water. […] IC50 values were calculated using GraFit (Erithacus Software Limited) and Ki values were calculated using Enzyme Kinetics, SigmaPlot (SPSS Inc.)

PKCζ [1] = molecular target: T1, PKCζ (Homo sapiens, UniProt Q05513); assay: PKC isoform assay, Example 1; assay type: biochemical; parameters: purchased Pan Vera
T1 sequence (Q05513 1-592): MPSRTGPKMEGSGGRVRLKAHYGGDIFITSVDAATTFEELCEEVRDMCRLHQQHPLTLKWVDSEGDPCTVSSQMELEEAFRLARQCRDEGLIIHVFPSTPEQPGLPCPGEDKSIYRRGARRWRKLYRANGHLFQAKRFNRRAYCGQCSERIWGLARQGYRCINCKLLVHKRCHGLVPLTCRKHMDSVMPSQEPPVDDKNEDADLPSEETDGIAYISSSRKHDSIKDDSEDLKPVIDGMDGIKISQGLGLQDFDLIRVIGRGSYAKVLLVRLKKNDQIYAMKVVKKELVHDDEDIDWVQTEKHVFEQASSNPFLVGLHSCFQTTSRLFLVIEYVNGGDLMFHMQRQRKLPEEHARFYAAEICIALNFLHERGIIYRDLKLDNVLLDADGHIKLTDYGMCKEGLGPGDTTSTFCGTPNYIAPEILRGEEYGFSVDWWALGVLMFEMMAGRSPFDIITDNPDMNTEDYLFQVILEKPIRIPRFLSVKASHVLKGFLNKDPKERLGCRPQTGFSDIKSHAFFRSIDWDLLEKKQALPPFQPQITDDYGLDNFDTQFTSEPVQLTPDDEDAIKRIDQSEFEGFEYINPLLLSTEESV
Protocol: (§1) Protein Kinase C Assay (general). The peptides Ac-Ser-Phe-Arg-Arg-Arg-NH2 (for PKC α, β and γ) and acetyl-[…]NH2 (for PKC ε and ζ) were used as substrates.
(§2) PKCε and ζ Assay (IC50 determinations). […] 10 μL enzyme diluted buffer containing 10 mM HEPES (pH 7.5), 10 mM DTT, BSA(3.8 mg/mL), 10 mM EDTA.4Na.2H2O and PKC (20 ng/μL) were added last to this buffer. Reactions were carried out as described above for the Protein Kinase Cα assay.

PKCε = molecular target: T2, PKCε (Homo sapiens, UniProt Q02156); assay: PKC isoform assay, Example 1; assay type: biochemical; parameters: purchased Pan Vera
T2 sequence (Q02156 1-737): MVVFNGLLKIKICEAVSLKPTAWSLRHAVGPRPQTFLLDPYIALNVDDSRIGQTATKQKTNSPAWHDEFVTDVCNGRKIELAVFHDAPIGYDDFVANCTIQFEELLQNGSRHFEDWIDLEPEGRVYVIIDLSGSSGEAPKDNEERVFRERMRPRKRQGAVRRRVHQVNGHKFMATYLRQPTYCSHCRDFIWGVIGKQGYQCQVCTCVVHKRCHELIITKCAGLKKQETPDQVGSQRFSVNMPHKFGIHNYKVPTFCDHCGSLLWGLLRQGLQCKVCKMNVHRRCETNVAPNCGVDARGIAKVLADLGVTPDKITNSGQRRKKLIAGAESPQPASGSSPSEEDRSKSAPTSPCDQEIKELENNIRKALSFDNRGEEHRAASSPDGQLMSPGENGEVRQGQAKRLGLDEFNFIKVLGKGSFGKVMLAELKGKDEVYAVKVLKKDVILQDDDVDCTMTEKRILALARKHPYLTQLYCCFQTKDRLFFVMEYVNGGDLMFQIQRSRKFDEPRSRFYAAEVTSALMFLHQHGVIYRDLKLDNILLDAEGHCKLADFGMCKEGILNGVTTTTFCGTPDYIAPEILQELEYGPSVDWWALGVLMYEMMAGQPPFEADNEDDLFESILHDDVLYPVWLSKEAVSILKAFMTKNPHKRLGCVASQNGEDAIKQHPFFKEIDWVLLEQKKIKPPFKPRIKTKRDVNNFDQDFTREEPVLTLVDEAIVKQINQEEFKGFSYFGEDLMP
Protocol: as §1, §2

PKCα = PKCα (Homo sapiens, UniProt P17252); settings: cited from earlier work
PKCζ [2] = molecular target: T1, PKCζ; parameters: purchased Panvera; settings: literature values; relative to most potently inhibited isoform (=1); cited from earlier work

Sequence of PKCθ (Q04759 whole entry, canonical isoform): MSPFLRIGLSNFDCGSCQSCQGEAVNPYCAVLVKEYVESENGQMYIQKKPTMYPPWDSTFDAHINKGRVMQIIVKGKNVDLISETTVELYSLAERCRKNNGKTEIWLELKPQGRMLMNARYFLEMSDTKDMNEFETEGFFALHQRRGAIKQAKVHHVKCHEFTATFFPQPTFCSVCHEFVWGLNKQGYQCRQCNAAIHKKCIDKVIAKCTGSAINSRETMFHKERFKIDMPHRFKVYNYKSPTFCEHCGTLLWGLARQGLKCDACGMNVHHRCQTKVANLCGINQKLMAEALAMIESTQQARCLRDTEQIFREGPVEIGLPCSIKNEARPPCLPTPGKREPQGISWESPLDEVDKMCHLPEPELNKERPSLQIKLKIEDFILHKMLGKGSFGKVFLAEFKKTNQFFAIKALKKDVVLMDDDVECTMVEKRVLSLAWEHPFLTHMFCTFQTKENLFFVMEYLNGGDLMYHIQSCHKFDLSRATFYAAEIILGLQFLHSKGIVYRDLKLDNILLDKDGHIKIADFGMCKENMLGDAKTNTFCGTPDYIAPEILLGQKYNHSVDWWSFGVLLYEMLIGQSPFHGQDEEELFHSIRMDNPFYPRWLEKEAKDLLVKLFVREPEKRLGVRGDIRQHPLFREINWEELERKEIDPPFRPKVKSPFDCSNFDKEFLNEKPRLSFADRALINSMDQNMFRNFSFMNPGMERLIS

SMILES: CC(C)C[C@H](NC(=O)[C@H](C)NC(=O)CNC(=O)[C@H](CCCNC(=N)N)NC(=O)[C@H](CCCNC(=N)N)NC(=O)[C@H](C)NC(=O)Cc1ccc(Cl)c(Cl)c1)C(=O)N[C@@H](CCCNC(=N)N)C(=O)N[C@@H](CNC(=O)c1ccc(-n2cccc2)cc1)C(=O)N[C@@H](C)C(=O)NCCS [Compound 6] ({Phenylacetyl(3,4-Cl2)}-ARRGALR[Dap](Benzoyl(4-(pyrrol-1-yl)))A-Cysteamide)
- Fold selectivity (IC50), PKC θ (PKCθ): 1210 fold
- selectivity for PKCα versus PKCγ (PKCγ): 580 fold
- selectivity for PKCα versus PKCζ (PKCζ [1]): 640 fold
- selectivity for PKCα versus PKCε (PKCε): 600 fold
- Ki (PKCα; Lee et al., 2004, equals the Ki of compound 6 in Table 1, read-out: IC50 or Ki of the most potently inhibited isoform, PKC α (in parentheses)): 0.8 nM
- Fold selectivity (IC50), PKC α (PKCα; literature values, relative to most potently inhibited isoform (=1)): 1 fold
- Fold selectivity (IC50), PKC ζ (PKCζ [2]): 640 fold
